Data reported in patent publication US20240415819A1, “MACROCYCLIC COMPOUNDS AS PROTEASOME SUBUNIT BETA TYPE-5 INHIBITORS” (Lead Discovery Center GmbH, priority 2021, published 2024).

Experiments:
[1] = biological target: T1, β5 subunit of the human constitutive proteasome (CPS) (Homo sapiens, UniProt P28074); assay: β5 inhibition assay, human constitutive proteasome (Suc-LLVY-AMC); format: biochemical; settings: IC50 class, Suc-LLVY-AMC substrate
T1 construct: purchased Boston Biochem E-360
Protocol: The enzymatic activity of the β5 subunit of the human constitutive proteasome (CPS) is analyzed. In another assay, which differs from the assay of the human constitutive proteasome only in using the human immunoproteasome (IPS) the enzymatic activity of the β5 subunit of the human immunoproteasome (IPS) is analyzed. […] Inhibition is indicated as IC50 [nM] (“-”=not measured).

[2] = biological target: T2, β5 subunit of the human immunoproteasome (IPS) (Homo sapiens, UniProt P28062); assay: β5 inhibition assay, human immunoproteasome (Suc-LLVY-AMC); format: biochemical; settings: IC50 class, Suc-LLVY-AMC substrate
T2 construct: purchased Boston Biochem E-370
How it was run: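 Human immunoproteasome (1 nM final) was preincubated 10 min at RT with compound in 100 mM HEPES pH 7.5, 50 mM NaCl, 0.02% SDS, 1 mM DTT. Suc-LLVY-AMC (22.6 μM final) was then added for 4 h at RT in the dark. After stopping with 1 μM bortezomib, AMC fluorescence was read (ex 355/em 460 nm).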

[3] = test system: A549 (human lung carcinoma cell line); assay: Glo assay of A549 cells (Table 3; ProteasomeGlo plating scheme); format: cell-based; settings: Homo sapiens; A549 cells; read-out: PGLo A549
How it was run: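 Cells plated in 384 wells; compound, DMSO, staurosporine transferred by ECHO; 105 min, 37° C., 5% CO2; Proteasome-Glo (Suc-LLVY-Glo) reagent added; dark 10-15 min; luminescence; IC50 nM.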

[4] = test system: Hs 746T (human gastric carcinoma cell line); assay: 48 hr CTG viability assay, Hs 746T; format: cell-based; settings: Hs746T, 48 hr CTG, read-out: Hs 746T IC50
How it was run: (§1)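 Growth inhibition by compound over 48 h; IC50 (nM) derived from duplicate CellTiter-Glo luminescence readings across 0.0015–10 uM.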

[5] = test system: MM1 S (B lymphoblast cell line); assay: 48 hr CTG viability assay, MM1S; format: cell-based; settings: Homo sapiens, 48 hr CTG, read-out: MM1S IC50
How it was run: as §1

[6] = test system: RPMI 8226 (B lymphocyte cell line, multiple myeloma); assay: 48 hr CTG viability assay, RPMI 8226; format: cell-based; settings: Homo sapiens, RPMI-8226; 48 hr CTG; read-out: RPMI-8226 IC50
How it was run: as §1

SMILES	IC50 [1] [nM]	IC50 [2] [nM]	IC50 [3] [nM]	IC50 [4] [nM]	IC50 [5] [nM]	IC50 [6] [nM]
Cc1ccc2cc1CNC(=O)[C@H](CCc1ccccc1)NC(=O)[C@@H](NC(=O)CCOCC1CC3(CCC3)C1)CC(=O)N1CCCC(CCO2)C1 (stereo partly drawn) [Compound 615, N-((9S,12S)-5^4-methyl-8,11,14-trioxo-9-phenethyl-4-oxa-7,10-diaza-1(3,1)-piperidina-5(1,3)-benzenacyclotetradecaphane-12-yl)-3-(spiro[3.3]heptan-2-ylmethoxy)propanamide]	< 100	< 100	< 100	< 100	< 100	< 100
Cc1ccc2cc1CNC(=O)[C@H](CCc1ccccc1)NC(=O)[C@@H](NC(=O)CCOC1CC3(C1)CN(C)C3)CC(=O)N1CCCC(CCO2)C1 (stereo partly drawn) [Compound 710, 3-((2-methyl-2-azaspiro[3.3]heptan-6-yl)oxy)-N-((9S,12S)-5^4-methyl-8,11,14-trioxo-9-phenethyl-4-oxa-7,10-diaza-1(3,1)-piperidina-5(1,3)-benzenacyclotetradecaphane-12-yl)propanamide]	< 100	< 100	< 100	< 100	< 100	< 100
Cc1ccc2cc1CNC(=O)[C@H](CCc1ccccc1)NC(=O)[C@@H](NC(=O)CCNCc1ccc(-c3ccncc3)cc1)CC(=O)N1CCCC(CCO2)C1 (stereo partly drawn) [Compound 603, N-((9S,12S)-5^4-methyl-8,11,14-trioxo-9-phenethyl-4-oxa-7,10-diaza-1(3,1)-piperidina-5(1,3)-benzenacyclotetradecaphane-12-yl)-3-((4-(pyridin-4-yl)benzyl)amino)propanamide]	< 100	< 100	< 100	< 100	< 100	< 100

More lines, now with the values ahead:

IC50 [1] [nM]	IC50 [2] [nM]	IC50 [3] [nM]	IC50 [4] [nM]	IC50 [5] [nM]	IC50 [6] [nM]	SMILES
< 100	< 100	< 100	< 100	< 100	< 100	Cc1ccc2cc1CNC(=O)[C@H](CCc1ccccc1)NC(=O)[C@@H](NC(=O)C1CC3(C1)CN(C(=O)OC(C)(C)C)C3)CC(=O)N1CCCC(CCO2)C1 (stereo partly drawn) [Compound 580, tert-butyl 6-(((9S,12S)-5^4-methyl-8,11,14-trioxo-9-phenethyl-4-oxa-7,10-diaza-1(3,1)-piperidina-5(1,3)-benzenacyclotetradecaphane-12-yl)carbamoyl)-2-azaspiro[3.3]heptane-2-carboxylate]
< 100	< 100	< 100	< 100	< 100	< 100	Cc1ccc2cc1CNC(=O)[C@H](CCc1ccccc1)NC(=O)[C@@H](NC(=O)CCN1CCC3(CCOC3)CC1)CC(=O)N1CCCC(CCO2)C1 (stereo partly drawn) [Compound 621, N-((9S,12S)-5^4-methyl-8,11,14-trioxo-9-phenethyl-4-oxa-7,10-diaza-1(3,1)-piperidina-5(1,3)-benzenacyclotetradecaphane-12-yl)-3-(2-oxa-8-azaspiro[4.5]decan-8-yl)propanamide]
< 100	< 100	< 100	100 to 500	100 to 500	100 to 500	Cc1ccc2cc1CNC(=O)[C@H](CCc1ccncc1)NC(=O)[C@@H](NC(=O)C1(F)CCNCC1)CC(=O)N1CCCC(CCO2)C1 (stereo partly drawn) [Compound 729, 4-fluoro-N-((12S)-5^4-methyl-8,11,14-trioxo-9-(2-(pyridin-4-yl)ethyl)-4-oxa-7,10-diaza-1(3,1)-piperidina-5(1,3)-benzenacyclotetradecaphane-12-yl)piperidine-4-carboxamide]
100 to 500	< 100	1000 to 5000	1000 to 5000	100 to 500	500 to 1000	Cc1ccc2cc1CNC(=O)[C@H](CCc1ccccc1)NC(=O)[C@@H](N1CCCC1)CC(=O)N1CCCC(CCO2)C1 (stereo partly drawn) [Compound 731, (9S,12S)-5^4-methyl-9-phenethyl-12-(pyrrolidin-1-yl)-4-oxa-7,10-diaza-1(3,1)-piperidina-5(1,3)-benzenacyclotetradecaphane-8,11,14-trione]
